The values below come from patent US8569292B2, “Cyclic inhibitors of 11β-hydroxysteroid dehydrogenase 1” (Vitae Pharmaceuticals, Inc., priority 2008, dated 2013).

For data set [1], the target named is T1, CYP2C9 (Homo sapiens, UniProt P11712).
T1 construct: purchased Invitrogen 2859; host or cells: insect cells infected with baculovirus (microsomes)
Description: Biological Test Example 9: CYP2C9 inhibition (Invitrogen kit, fluorogenic OOMR). The data set is classed as in vitro ADME.

A further data set concerns the target CYP2C19 (Homo sapiens, UniProt P33261). Description: Biological Test Example 8: CYP2C19 inhibition (diazepam N-demethylation). The data set is classed as in vitro ADME.
For data set [2], the target named is T2, 11β-HSD1 (Homo sapiens, UniProt P28845). Description: Biological Test Example 4: microsomal 11β-HSD1 in the presence of 50% human plasma. The note with it: for Shift: IC50 in Test Example 4 divided by IC50 in Test Example 1.
T2 sequence (P28845 whole entry): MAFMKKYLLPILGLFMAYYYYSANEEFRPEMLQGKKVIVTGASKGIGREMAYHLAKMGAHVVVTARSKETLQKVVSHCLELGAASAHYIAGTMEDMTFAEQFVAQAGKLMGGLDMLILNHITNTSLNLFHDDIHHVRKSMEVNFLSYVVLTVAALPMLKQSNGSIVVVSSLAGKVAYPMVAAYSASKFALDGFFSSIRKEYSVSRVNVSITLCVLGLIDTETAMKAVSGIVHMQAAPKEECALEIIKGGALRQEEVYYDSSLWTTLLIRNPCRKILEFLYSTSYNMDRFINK
For data set [3], the target named is T1, CYP2C9. Description: Biological Test Example 7: CYP2C9 inhibition (naproxen O-demethylation). The data set is classed as in vitro ADME.
In data set [4] the target is T2, 11β-HSD1. Description: biochemical. The settings on record: for inhibition at 0.1 µM: read-out: Average % inhibition at 100 nM.
The target of another data set is CYP3A4 (Homo sapiens, UniProt P08684). Description: Biological Test Example 6: CYP3A4 inhibition (erythromycin N-demethylation). The class given is in vitro ADME.
Sequence of CYP3A4 (P08684 whole entry): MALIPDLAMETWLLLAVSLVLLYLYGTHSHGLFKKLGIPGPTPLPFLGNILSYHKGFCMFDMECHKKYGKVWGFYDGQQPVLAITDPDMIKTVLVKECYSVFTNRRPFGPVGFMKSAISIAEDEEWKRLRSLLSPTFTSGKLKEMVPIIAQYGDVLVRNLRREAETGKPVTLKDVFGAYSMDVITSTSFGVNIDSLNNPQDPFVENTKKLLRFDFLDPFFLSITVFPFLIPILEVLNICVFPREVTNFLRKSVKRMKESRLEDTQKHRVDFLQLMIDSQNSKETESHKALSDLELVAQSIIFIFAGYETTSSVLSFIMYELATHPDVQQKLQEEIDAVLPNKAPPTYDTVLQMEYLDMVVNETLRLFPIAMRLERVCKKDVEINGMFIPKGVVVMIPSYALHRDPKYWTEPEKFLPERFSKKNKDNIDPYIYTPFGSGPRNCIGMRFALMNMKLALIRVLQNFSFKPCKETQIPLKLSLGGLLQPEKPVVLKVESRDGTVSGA
The nature of data set [5]: Biological Test Example 5: fraction unbound in human plasma (equilibrium dialysis). The class given is in vitro ADME. As to the method:
Plasma protein binding of compounds was determined with Equilibrium Dialysis of spiked plasma against compound free dextrane buffer using a dialysis membrane with mass cutoff of 5000 Da. Compound concentrations in plasma and buffer after incubation were measured using HPLC/Mass spectrometry.
A general note: In equilibrium dialysis only unbound substance equilibrates across the membrane.

Setting [6] is: Biological Test Example 1 IC50 (nM).
Setting [7] is: IC50 Range, Biological Test Example 1.

Structures are written as SMILES.

T1 sequence (P11712 whole entry): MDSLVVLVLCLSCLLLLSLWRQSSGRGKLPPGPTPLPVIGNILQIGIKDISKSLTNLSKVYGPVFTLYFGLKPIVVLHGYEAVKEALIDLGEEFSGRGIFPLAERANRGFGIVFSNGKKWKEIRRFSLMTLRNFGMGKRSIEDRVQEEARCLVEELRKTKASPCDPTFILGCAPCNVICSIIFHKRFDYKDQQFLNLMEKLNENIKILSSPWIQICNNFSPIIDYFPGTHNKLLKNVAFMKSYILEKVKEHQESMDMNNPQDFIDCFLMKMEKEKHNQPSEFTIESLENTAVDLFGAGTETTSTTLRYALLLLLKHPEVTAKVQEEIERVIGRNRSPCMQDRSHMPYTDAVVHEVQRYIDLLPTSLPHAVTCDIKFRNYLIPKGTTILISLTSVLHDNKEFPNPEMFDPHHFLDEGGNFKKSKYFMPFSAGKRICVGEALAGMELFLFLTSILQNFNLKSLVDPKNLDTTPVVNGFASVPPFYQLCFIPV
Sequence of CYP2C19 (P33261 whole entry): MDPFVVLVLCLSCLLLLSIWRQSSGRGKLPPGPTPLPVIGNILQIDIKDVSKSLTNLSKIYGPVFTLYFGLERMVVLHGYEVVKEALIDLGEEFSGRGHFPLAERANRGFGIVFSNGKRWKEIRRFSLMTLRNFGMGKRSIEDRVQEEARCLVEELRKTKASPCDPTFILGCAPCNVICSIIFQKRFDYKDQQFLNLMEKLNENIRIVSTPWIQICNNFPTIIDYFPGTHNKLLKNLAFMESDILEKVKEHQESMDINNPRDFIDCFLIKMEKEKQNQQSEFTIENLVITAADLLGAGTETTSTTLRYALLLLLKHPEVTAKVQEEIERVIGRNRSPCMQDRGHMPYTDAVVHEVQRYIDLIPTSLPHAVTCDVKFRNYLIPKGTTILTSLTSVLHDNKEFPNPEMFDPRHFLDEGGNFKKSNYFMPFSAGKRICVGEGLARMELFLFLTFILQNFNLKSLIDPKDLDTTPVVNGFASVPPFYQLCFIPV

Take `Cc1cc(-c2ccc([C@H](C)N3CC[C@](CCCNS(C)(=O)=O)(c4ccc(F)cc4)OC3=O)cc2)ccn1` [EXAMPLE 80, N-(3-((R)-6-(4-fluorophenyl)-3-((S)-1-(4-(2-methylpyridin-4-yl)phenyl)ethyl)-2-oxo-1,3-oxazinan-6-yl)propyl)methanesulfonamide]: the IC50 (usually the concentration that gives 50% inhibition) is 8.9 µM at CYP2C9 [1]; 13.2 µM against CYP2C19; 0.0055 µM at 11β-HSD1 [2]; 11.2 µM against CYP2C9 [3]; 1 nM against 11β-HSD1 [4] (setting [6]); under 100 nM against 11β-HSD1 [4] (setting [7]). At CYP3A4, this compound returned an IC50 of 13 µM. The Shift at 11β-HSD1 [2] was found to be 5.4. On 11β-HSD1 [4], the inhibition – broadly, the percentage by which the read-out fell short of the control – at 0.1 µM worked out at 96%.

`COc1ccc(-c2ccc([C@H](C)N3CC[C@](CCC(N)=O)(c4ccccc4)OC3=O)cc2)cn1` [EXAMPLE 52, 3-((R)-3-((S)-1-(4-(6-methoxypyridin-3-yl)phenyl)ethyl)-2-oxo-6-phenyl-1,3-oxazinan-6-yl)propanamide]: the IC50 on 11β-HSD1 [2] is 0.0105 µM; at 11β-HSD1 [4] (setting [6]), 1.1 nM; against 11β-HSD1 [4] (setting [7]), under 100 nM; against CYP3A4, over 50 µM. The “Biological Test Example 5 (%)” value in data set [5] was 1.8%. Moreover, on 11β-HSD1 [4], the inhibition at 0.1 µM turned out to be 94.5%.

Regarding `Cc1cc(-c2ccc([C@H](C)N3CC[C@](CC(C)(C)O)(c4ccccc4)OC3=O)cc2)cc(C)n1` [EXAMPLE 139, (S)-3-((S)-1-(4-(2,6-dimethylpyridin-4-yl)phenyl)ethyl)-6-(2-hydroxy-2-methylpropyl)-6-phenyl-1,3-oxazinan-2-one], the IC50 was 9.9 µM on CYP2C9 [1], 18.2 µM on CYP2C19, 21.4 µM on CYP2C9 [3] and over 50 µM on CYP3A4.

For the compound `Cc1cc(-c2ccc([C@H](C)N3CC[C@](CC(C)(C)O)(c4ccccc4)OC3=O)cc2)ccn1` [EXAMPLE 97, (S)-6-(2-hydroxy-2-methylpropyl)-3-((S)-1-(4-(2-methylpyridin-4-yl)phenyl)ethyl)-6-phenyl-1,3-oxazinan-2-one], the IC50 was 9.7 µM against CYP2C9 [1]; 19.5 µM at CYP2C19; 0.0108 µM at 11β-HSD1 [2]; 11.2 µM at CYP2C9 [3]; 1 nM on 11β-HSD1 [4] (setting [6]); under 100 nM on 11β-HSD1 [4] (setting [7]). This compound had an IC50 against CYP3A4 of 8.9 µM. The Shift at 11β-HSD1 [2] was determined as 11.1. The inhibition at 0.1 µM on 11β-HSD1 [4] amounted to 98.8%.

Take `C[C@@H](c1ccc(-c2ccncn2)cc1)N1CC[C@](CC(C)(C)O)(c2ccccc2)OC1=O` [EXAMPLE 131, (S)-6-(2-hydroxy-2-methylpropyl)-6-phenyl-3-((S)-1-(4-(pyrimidin-4-yl)phenyl)ethyl)-1,3-oxazinan-2-one]: the IC50 is 11.2 µM at CYP2C9 [1]; 2.6 µM against CYP2C19; 0.0051 µM at 11β-HSD1 [2]; 14 µM at CYP2C9 [3]; 2.2 nM at 11β-HSD1 [4] (setting [6]); under 100 nM on 11β-HSD1 [4] (setting [7]). The compound also had an IC50 on CYP3A4 of 5.6 µM. For the same compound, the inhibition at 0.1 µM on 11β-HSD1 [4] turned out to be 98.5%.

As to `Cc1cc(-c2ccc([C@H](C)N3CC[C@](CC(C)(C)O)(c4ccc(F)cc4)OC3=O)cc2)ccn1` [EXAMPLE 76, (S)-6-(4-fluorophenyl)-6-(2-hydroxy-2-methylpropyl)-3-((S)-1-(4-(2-methylpyridin-4-yl)phenyl)ethyl)-1,3-oxazinan-2-one], the IC50 on CYP2C9 [1] was 7.9 µM; on CYP2C19 it was 8.5 µM; at 11β-HSD1 [2] it was 0.0069 µM; against CYP2C9 [3], 2.9 µM; against 11β-HSD1 [4] (setting [6]), 0.8 nM; on 11β-HSD1 [4] (setting [7]) it was under 100 nM. The same compound registered an IC50 against CYP3A4 of 5 µM. The Shift on 11β-HSD1 [2] was 8.8. Besides, the inhibition at 0.1 µM at 11β-HSD1 [4] was determined as 98.7%.

Consider `C[C@@H](c1ccc(-c2ccccn2)cc1)N1CC[C@](CCCNS(C)(=O)=O)(c2ccc(F)cc2)OC1=O` [EXAMPLE 61, N-(3-((R)-6-(4-fluorophenyl)-2-oxo-3-((S)-1-(4-(pyridin-2-yl)phenyl)ethyl)-1,3-oxazinan-6-yl)propyl)methanesulfonamide], for which the 50% inhibitory concentration (IC50) was 9.9 µM against CYP2C9 [1]; 40 µM against CYP2C19; 0.0136 µM at 11β-HSD1 [2]; 23 µM at CYP2C9 [3]; 0.7 nM against 11β-HSD1 [4] (setting [6]); under 100 nM against 11β-HSD1 [4] (setting [7]). Further, on CYP3A4, the IC50 turned out to be 29.2 µM. The Shift on 11β-HSD1 [2] is on record as 18.2. For the same compound, the inhibition at 0.1 µM on 11β-HSD1 [4] was found to be 96.2%.

In the case of `C[C@@H](c1ccc(-c2ccc(C(=O)NC3CC3)cn2)cc1)N1CC[C@](CC(C)(C)O)(c2ccccc2)OC1=O` [EXAMPLE 161, N-cyclopropyl-6-(4-((S)-1-((S)-6-(2-hydroxy-2-methylpropyl)-2-oxo-6-phenyl-1,3-oxazinan-3-yl)ethyl)phenyl)nicotinamide], the IC50 on CYP2C19 was 10.5 µM; at 11β-HSD1 [2], 0.0039 µM; against CYP2C9 [3] it was 36 µM; on 11β-HSD1 [4] (setting [6]), 1.1 nM; against 11β-HSD1 [4] (setting [7]) it was under 100 nM; on CYP3A4 it was over 50 µM. The inhibition at 0.1 µM at 11β-HSD1 [4] amounted to 95.1%.

As to `C[C@@H](c1ccc(-c2ccc(C(=O)NC3CC3)nn2)cc1)N1CC[C@](CC(C)(C)C#N)(c2ccccc2)OC1=O` [EXAMPLE 11, 6-(4-((S)-1-((R)-6-(2-cyano-2-methylpropyl)-2-oxo-6-phenyl-1,3-oxazinan-3-yl)ethyl)phenyl)-N-cyclopropylpyridazine-3-carboxamide], the IC50 against CYP2C19 is 3.7 µM; on 11β-HSD1 [2], 0.0034 µM; at CYP2C9 [3], over 50 µM; against 11β-HSD1 [4] (setting [6]), 1 nM; against 11β-HSD1 [4] (setting [7]), under 100 nM; on CYP3A4, 8.7 µM. Further, the Shift on 11β-HSD1 [2] came out at 3.5. Also, the inhibition at 0.1 µM at 11β-HSD1 [4] was found to be 91.6%.

Turning to `C[C@@H](c1ccc(-c2ccc(C(=O)NC(C)(C)C)nn2)cc1)N1CC[C@](CC(C)(C)C#N)(c2ccccc2)OC1=O` [EXAMPLE 9, N-tert-butyl-6-(4-((S)-1-((R)-6-(2-cyano-2-methylpropyl)-2-oxo-6-phenyl-1,3-oxazinan-3-yl)ethyl)phenyl)pyridazine-3-carboxamide], the IC50 at CYP2C19 was 0.8 µM; on 11β-HSD1 [2] it was 0.0051 µM; on CYP2C9 [3], over 50 µM; at 11β-HSD1 [4] (setting [6]), 1.3 nM; against 11β-HSD1 [4] (setting [7]) it was under 100 nM; against CYP3A4 it was 48.9 µM. Moreover, the Shift at 11β-HSD1 [2] is 3.9. The inhibition at 0.1 µM at 11β-HSD1 [4] was 92.4%.

On to `COc1ccc(-c2ccc([C@H](C)N3CC[C@](CC(C)(C)O)(c4ccccc4)OC3=O)cc2)cn1` [EXAMPLE 93, (S)-6-(2-hydroxy-2-methylpropyl)-3-((S)-1-(4-(6-methoxypyridin-3-yl)phenyl)ethyl)-6-phenyl-1,3-oxazinan-2-one], for which the IC50 on CYP2C9 [1] amounted to 8 µM; on CYP2C19 it was 11.4 µM; at CYP2C9 [3], 8 µM; against CYP3A4 it was 11.6 µM.

In the case of `C[C@@H](c1ccc(-c2ccc(C(=O)NC(C)(C)C)cn2)cc1)N1CC[C@](CC(C)(C)C#N)(c2ccccc2)OC1=O` [EXAMPLE 3, N-tert-butyl-6-(4-((S)-1-((R)-6-(2-cyano-2-methylpropyl)-2-oxo-6-phenyl-1,3-oxazinan-3-yl)ethyl)phenyl)nicotinamide], the half-maximal inhibitory concentration (IC50) on CYP2C19 was 3 µM; on 11β-HSD1 [2] it was 0.0079 µM; against CYP2C9 [3], 2.5 µM; against 11β-HSD1 [4] (setting [6]), 1 nM; against 11β-HSD1 [4] (setting [7]) it was under 100 nM; against CYP3A4 it was 2.1 µM. On 11β-HSD1 [2], the Shift turned out to be 8.0. In addition, the inhibition at 0.1 µM on 11β-HSD1 [4] turned out to be 96.8%.
